# Literature values in patent publication US6852718B2, “Phenylsulphonylipiperazinyl derivatives as 5-HT receptor ligands” (Merck Sharp & Dohme Ltd, priority 2000, dated 2005).
# Target: human dopamine D2 receptor (Homo sapiens, UniProt P14416)
# Sequence (P14416 whole entry): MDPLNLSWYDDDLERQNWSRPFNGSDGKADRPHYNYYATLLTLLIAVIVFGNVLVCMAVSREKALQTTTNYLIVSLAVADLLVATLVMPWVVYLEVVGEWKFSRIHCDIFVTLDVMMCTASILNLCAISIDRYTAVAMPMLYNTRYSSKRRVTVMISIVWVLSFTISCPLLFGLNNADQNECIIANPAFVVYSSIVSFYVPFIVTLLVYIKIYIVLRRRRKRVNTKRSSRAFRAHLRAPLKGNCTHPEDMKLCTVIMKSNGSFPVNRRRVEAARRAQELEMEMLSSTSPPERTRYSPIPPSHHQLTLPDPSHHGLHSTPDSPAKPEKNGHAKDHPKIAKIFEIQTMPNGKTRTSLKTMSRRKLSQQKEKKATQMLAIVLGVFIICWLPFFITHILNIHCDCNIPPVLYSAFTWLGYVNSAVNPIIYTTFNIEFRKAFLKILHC
structure (smiles),measurement,value
"COc1cccc(C(O)C2CCN(CCc3ccc(F)cc3)CC2)c1OC (stereo not drawn) [MDL-100,907, (+)-α-(2,3-dimethoxyphenyl)-1-[2-(4-fluorophenyl)-ethyl]-4-piperidinemethanol]",activity at the human dopamine D2 receptor,essentially devoid of activity
